From US8669289B2, “Methods and compositions relating to hematologic malignancies” (The Jackson Laboratory, priority 2009, dated 2014) come the findings set out here.

The structures appear in SMILES notation. “Also recorded” adds a separate entry of the source.

Data set [1] relates to K562 myeloid leukemia cells. Briefly: K562 cell proliferation, trypan blue live cell count. The data set is classed as cell-based, human. How it is done: The cells are treated with curcumin at 5 different concentrations (20 μM; 40 μM; 60 μM; 80 μM; 100 μM) for 48, 72 and 96 hours. The cells are stained with trypan blue and counted. The total cell number of live cells is shown in the graph in FIG. 27. […] K562 is a human Bcr-Abl positive CML cell line, which was isolated from a CML patient in blast crisis (Koeffler, H. P., and Golde, D. W. 1980. Human myeloid leukemia cell lines: a review. […] This cell line is commonly used for screening compounds to detect anti-proliferative activities of leukemia cells and for the pharmacology and toxicology studies required for IND (Investigational New Drug) application. […] The cells are treated with zileuton at 7 different concentrations (10 μ[…]) for 48, and 72 hours. The cells are stained with trypan blue and counted. The total cell number of live cells following these treatments is shown in the graph in FIG. 28.

The test system of data set [2] is leukemia cells, LSCs, LT-LSC and ST-LSC+MPP. In words: In vitro culture of bone marrow cells of CML mice with curcumin, live cell numbers by FACS. In kind it is cell-based. Particulars: 20 μM, 6 days, vs buffer control. How it is done:
Bone marrow cells are isolated from 6- to 10-week-old C57BL/6 (B6) mice induced with BCR-ABL, for example using the retroviral vector MSCV-IRES-eGFP carrying the p210 BCR-ABL cDNA to produce CML mice. Total bone marrow cells were cultured in vitro in the presence of StemSpan serum-free medium (StemCell Technologies, Vancouver, BC) supplemented with 10 μg/mL heparin (Sigma, St Louis, Mo.), 10 ng/mL mouse SCF, 20 ng/mL mouse TPO, 20 ng/mL mouse IGF-2 (all from R&D Systems, Minneapolis, Minn.), and 10 ng/mL human FGF-1 (Invitrogen, Carlsbad, Calif.). Half of the medium was replaced after 3 days with fresh medium. (Peng et al Blood, 15 Jul. 2007, Vol. 110, No. 2, pp. 678-685; Zhang and Lodish Blood, 1 Jun. 2005, Vol. 105, No. 11, pp. 4314-4320; de Haan et al. Dev Cell 2003; 4:241-251). The cells were cultured for 6 days in the presence or absence of the Alox5 inhibitor, curcumin at (1,7-Bis(4-hydroxy-3-methoxyphenyl)-1,6-heptadiene-3,5-dione; Calbiochem cat. no. 239802) a concentration of 20 μM in vitro (5×10^6 cells/6 cm tissue culture plate) at 37° C. in a 5% CO2 tissue culture incubator. […] Total live cell numbers were measured for leukemia cells, leukemia stem cells, long-term LSC (LT-LSC) and short-term LSCs with multipotent progenitor cells (ST-LSC+MPP). […]
In general terms: In flow cytometry, cells or beads pass a laser one at a time.

Data set [3] relates to Alox5 gene. In words: Gene expression in LSCs of CML mice with imatinib treatment (DNA microarray, RT-PCR). Particulars: imatinib 150 mg/kg every 4 hours, 5 doses from day 13 post BMT. In kind it is in vivo. The source says:
(§1) Leukemic stem cells in CML (CML-SCs) are insensitive to BCR-ABL kinase inhibitors (Graham et al., 2002). A bone marrow transplantation (BMT) mouse model of CML is used as an assay system, in which bone marrow cells from donor mice pretreated with 5-fluorouracil (5-FU) and transduced with BCR-ABL result in development of CML in recipient mice (Li et al., 1999). Bone marrow cells from C57BL/6 (B6) mice are transduced with retrovirus containing BCR-ABL/GFP or GFP alone under conditions for induction of CML, followed by transplantation of the transduced cells into B6 recipient mice.
Fourteen days after BMT, bone marrow cells are isolated and subsequently sorted by FACS for LSCs (GFP^+Lin^−c-Kit^+Sca-1^+) (Hu et al., 2006). Total RNA is isolated from these BCR-ABL-expressing LSCs or from the GFP^+Lin^−c-Kit^+Sca-1^+ cells that only express GFP, and DNA microarray analysis is carried out to compare gene expression between BCR-ABL-expressing and non-BCR-ABL expressing Lin^−c-Kit^+Sca-1^+ cells.

The subject of data set [4] is white blood cells. Briefly: Peripheral white blood cell counts of CML mice. Particulars: 14 days after bone marrow transplantation. The data set is classed as in vivo. The source says: (§2) Water is used as placebo.
The white blood cells are collected from the CML induced mice 14 days after bone marrow transplantation.

Data set [5] addresses T1, Alox5 (Mus musculus, UniProt P48999).
T1 sequence (P48999 1-674): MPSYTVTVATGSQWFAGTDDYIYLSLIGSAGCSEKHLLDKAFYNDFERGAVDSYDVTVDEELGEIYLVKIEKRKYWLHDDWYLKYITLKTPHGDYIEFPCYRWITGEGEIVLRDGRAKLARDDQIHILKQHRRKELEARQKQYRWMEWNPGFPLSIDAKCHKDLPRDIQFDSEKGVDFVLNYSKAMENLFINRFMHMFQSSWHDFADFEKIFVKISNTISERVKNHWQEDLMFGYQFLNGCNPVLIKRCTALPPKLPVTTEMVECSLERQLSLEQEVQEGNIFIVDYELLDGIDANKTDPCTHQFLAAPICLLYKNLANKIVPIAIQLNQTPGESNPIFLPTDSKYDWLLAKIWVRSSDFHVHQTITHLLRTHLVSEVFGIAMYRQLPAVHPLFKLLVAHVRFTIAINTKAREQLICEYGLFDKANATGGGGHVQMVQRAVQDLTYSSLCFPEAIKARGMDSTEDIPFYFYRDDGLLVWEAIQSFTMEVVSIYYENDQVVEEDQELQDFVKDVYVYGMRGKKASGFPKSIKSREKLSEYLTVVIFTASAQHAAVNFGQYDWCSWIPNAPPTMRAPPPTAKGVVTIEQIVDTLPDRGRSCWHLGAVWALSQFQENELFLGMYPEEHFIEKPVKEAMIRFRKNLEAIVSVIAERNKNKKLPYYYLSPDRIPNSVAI
Briefly: Plasma level of LTB4 in CML mice. Particulars: compared to placebo-treated CML mice.

In data set [6] the test system is mice with BCR-ABL-induced CML. In words: Leukemia cell infiltration to lungs and spleens of CML mice. In kind it is in vivo. Particulars: zileuton-treated CML mice.
The subject of data set [7] is normal HSCs. Briefly: FACS of normal HSCs in zileuton-treated mice. The data set is classed as in vivo. How it is done: Recipients of BCR-ABL-transduced wild type bone marrow cells are treated with zileuton (300 mg/kg of body weight, twice a day) beginning at 8 days after BMT. […] At days 20 and 90 post BMT (induction of CML), FACS analysis is performed. […] No suppression of normal HSCs is found in placebo- or zileuton-treated mice receiving wild type donor bone marrow cells transduced with MSCV-IRES-GFP retrovirus.

Data set [8] relates to leukemia stem cells (CD34+CD38-). Briefly: Human CML CD34+CD38- cells in patient bone marrow culture, FACS. The settings on record: 48 h, untreated 1.4%. In kind it is cell-based. How it is done:
Bone marrow was isolated from a CML patient. The cells were cultured in serum-free media (SFM: Iscove modified Dulbecco medium (Sigma-Aldrich) supplemented with a serum substitute bovine serum albumin[…][…], BIT9500 from […] Technologies), five growth factors (5GF: cocktail of 20 ng/mL recombinant human IL-3 (rhIL-3), 20 ng/mL rhIL-6, 100 ng/mL rhFlt3-ligand, 100 ng/mL rh stem cell factor, available from […] Technologies)) and zileuton at two doses, 300 μM or 600 μM, for 48 hours. The cells were analyzed by FACS and the percentages of leukemia stem cells (CD34+CD38-) were determined using anti CD34 and anti CD38 antibodies.

In data set [9] the test system is mice with CML induced by BCR-ABL-T315I. Briefly: Survival of mice with CML induced by BCR-ABL-T315I. In kind it is in vivo. The settings on record: zileuton n=11 vs placebo n=6.
For data set [10], the system named is GFP+Gr-1+ myeloid leukemia cells. In words: FACS of GFP+Gr-1+ myeloid leukemia cells in peripheral blood and bone marrow of treated CML mice. In kind it is in vivo.
Excerpt: as §1, §2

Data set [11] concerns LSCs. Briefly: FACS of LT-LSCs and ST-LSCs/MPP cells in bone marrow of zileuton-treated CML mice. In kind it is in vivo. The settings on record: 300 mg/kg twice a day from day 8; days 20 and 90 post BMT. How it is done:
Cell populations affected by Alox5 deficiency are determined using FACS analysis. BCR-ABL-transduced Alox5^−/− bone marrow cells are transplanted into recipient mice (n=4) to induce CML, and bone marrow cells from these mice are analyzed by FACS for percentages of total HSCs (Lin^−c-Kit^+Sca-1^+), LT-HSCs (Lin^−c-Kit^+Sca-1^+CD34^−), and ST-HSCs/MPP cells (Lin^−c-Kit^+Sca-1^+CD34^+).
Recipients of BCR-ABL-transduced wild type bone marrow cells are treated with zileuton (300 mg/kg of body weight, twice a day) beginning at 8 days after BMT. […] At days 20 and 90 post BMT (induction of CML), FACS analysis is performed.

In the case of `COc1cc(C=CC(=O)CC(=O)C=Cc2ccc(O)c(OC)c2)ccc1O` [Curcumin, 1,7-Bis(4-hydroxy-3-methoxyphenyl)-1,6-heptadiene-3,5-dione], the “Number of live K562 cells” value in data set [1] (20-100 μM, 72 or 96 hours) is on record as “reduces the number of live cells in all groups”. For the same compound, the “Concentration at which an effect on live K562 cell number is shown” value in data set [1] (48 hours) was ≥ 40 µM. For the same compound, the “Total live cell number of leukemia cells, LSCs, LT-LSC and ST-LSC+MPP” value in data set [2] is recorded as “reduced”.

Regarding `Cc1ccc(NC(=O)c2ccc(CN3CCN(C)CC3)cc2)cc1Nc1nccc(-c2cccnc2)n1` [Imatinib, 4-[(4-methylpiperazin-1-yl)methyl]-N-[4-methyl-3-[(4-pyridin-3-ylpyrimidin-2-yl)amino]-phenyl]-benzamide], the “Up-regulation of the Alox5 gene by BCR-ABL in LSCs” value in data set [3] was “not abolished; also recorded: not prevented”.

As to `CC(c1cc2ccccc2s1)N(O)C(N)=O` (stereo not shown) [Zileuton, N-[1-(1-benzothien-2-yl)ethyl]-N-hydroxyurea], the “Number of live K562 cells” value in data set [1] (10-400 μM, 48 hours) is “reduces the number of live cells in the 200 μM and 400 μM groups”; in data set [1] (10-400 μM, 72 hours), “shows an effect at all concentrations”. Besides, the “White blood cell counts” value in [4] was “reduction of white blood cell counts less dramatically than does imatinib treatment”. The “Plasma level of LTB4” value is “decreased” in [5] and “reduction” in data set [5] (listed as zileuton). For the same compound, the “Leukemia cell infiltration to the lungs and the spleens” value in data set [6] was “less severe leukemia cell infiltration”. The “Differentiation of GFP- LT-HSCs in the same animals” value in data set [7] (CML mice, 300 mg/kg twice a day) is “did not lead to blocked differentiation”. Besides, in [7] (mice receiving MSCV-IRES-GFP-transduced wild type bone marrow, day 14 after BMT), the “Numbers of GFP+Lin-c-Kit+Sca-1+ cells in bone marrow or spleens” value was “does not result in a reduction”. Further, the entries for the “Percentage of leukemia stem cells (CD34+CD38-)” value in [8] (300 μM) and in data set [8] (600 μM) were 1.1% and 0.9%, respectively. Moreover, in data set [9], the “Survival of mice with CML induced by BCR-ABL-T315I” value is on record as “prolongs survival”. Further, the “Percentage of GFP+Gr-1+ myeloid leukemia cells in the peripheral blood of CML mice” value in data set [10] (Day 11) was 48.3%; in [10] (Day 14), 49.9%; in data set [10] (Day 21), 62.9%; in [10] (Day 28) it was 61.4%; in data set [10] (Day 35), 39.7%; in data set [10] (Day 42) it was 29.4%. Besides, the “Percentage of GFP+Gr-1+ myeloid leukemia cells in the peripheral blood of CML mice” value in data set [10] (Day 60) is reported as 5.1%. The “GFP+Gr-1+ myeloid leukemia cells in bone marrow” value in data set [10] (bone marrow, during the treatment) is listed as “drop to low levels”. Moreover, the “GFP+Gr-1+ cells in peripheral blood over time” value in data set [10] (from 11 days to 8 weeks) is on record as “gradually decrease with time”. Moreover, the “Ratio of percentage of LT-LSCs to percentage of ST-LSCs/MPP cells” value in data set [11] was “increased with treatment”.
